What was measured:
Format in all cases: in vitro ADME, human
Caco-2 cells = test: in vitro
Experimental: (§1) A precise amount of FRLE reserve solution is diluted to concentrations of 50, 100, and 150 μg/mL, representing the low, medium, and high concentrations of FRLE. Additionally, solutions are prepared containing 0.100 μmoL/mL Verapamil (Ver), 0.099 μmoL/mL Cyclosporine A (CsA), and 0.025 μmoL/mL EGTA at low, medium, and high concentrations for bidirectional transport.
(§2) Caco-2 cells are seeded at a density of 2.5 × 10^5 cells/mL, with 0.5 mL inoculated into each well of a Transwell® 12-well plate. After continuous culturing for 18 days, the cell model is established. Bidirectional transport experiments include AP→BL ([…], absorption transport) and BL→AP ([…], secretion transport).
(§3) Taking absorption transport as an example: 0.5 mL of drug-containing Hank’s Balanced Salt Solution (HBSS) solution is added to the apical (AP) side (supply side), while 1.5 mL of blank solution is added to the basolateral (BL) side (receiving side). At time points 15, 30, 60, 90, 120, 150, and 180 min, 200 µL is drawn from the BL side and simultaneously supplemented with 200 µL of HBSS buffer. The samples are then evaporated in a water bath, re-dissolved in methanol, and centrifuged at 12,000 rpm for 10 min. The supernatant is taken and assayed under the conditions described in “Establishment of the determination method for euscaphic acid and tiliroside”. The effects of different times, concentrations, inhibitors, chelating agents, and pH values on the absorption characteristics of euscaphic acid and tiliroside in FRLE are investigated. The secretion transport procedure is identical to the absorption transport ([Artursson & Karlsson, 1991]).
(§4) The side with the added blank solution is considered the receiving side, and the amount of drug in the receiving side is regarded as its absorption amount (Qr). In the A→B transport test, the amount of drug absorbed by the B-side chamber at any time point is denoted as (QrBi). In the B→A transport test, the amount of drug absorbed by the A-side chamber at any time point is (QrAi). The specific calculations are provided in the following formulas:
(§5) A-B transport: QrBi = 0.2 × (Cr1 + Cr2 + Λ + Cr(i-1)) + 1.5 × Cri
(§6) B-A transport: Qrdi = 0.2 × (Cr1 + Cr2 + Λ + Cr(i-1)) + 0.5 × Cdi
(§7) In the formula, 1.5 represents the volume of the test solution added to the B-side chamber (mL), 0.5 represents the volume of the test solution added to the A-side chamber (mL), and 0.2 is the volume of each sample taken (mL). Cri is the actual concentration in the receiving chamber at the i-th time point (μg/mL). The apparent permeability coefficient Papp (cm/s) is calculated using the following formula ([Lu et al., 2020]):
(§8) Papp=dQ/dt×1/A×C0 dQ/dt represents the amount of drug transported per unit of time (μg/s); A is the surface area of the 12-well Transwell® membrane (1.12 cm^2), and C0 is the initial concentration of the drug in the donor side ([…]) ([Qu et al., 2021]).
(§9) Exhaust ratio (RB-A/A-B)) is calculated using the following formula: RB−A/A−B=Papp(B−A)/Papp(A−B)

P-gp = test: in vitro; conditions: human, Caco-2, RB→A/A→B
Experimental: as §1, §2, §3, §4, §5, §6, §7, §8, §9

in vitro = conditions: human
Experimental: as §1, §2, §3, §4, §5, §6, §7, §8, §9

C[C@@H]1CC[C@]2(C(=O)O)CC[C@]3(C)C(=CC[C@@H]4[C@@]5(C)C[C@@H](O)[C@@H](O)C(C)(C)[C@@H]5CC[C@]43C)[C@@H]2[C@]1(C)O [Euscaphic acid]
P-gp substrate status (Caco-2 cells; Caco-2): substrates of P-gp | absorption category from Papp (Caco-2 cells; Caco-2): good absorption | transport mechanism (Caco-2 cells; Caco-2): passive diffusion | transport of euscaphic acid over time (Fig. 5M-O) (Caco-2 cells; human, Caco-2, 15 min, 50 μg/mL, pH 9): 0.08 | absorption amount (Qr) (Caco-2 cells; human, Caco-2, 120 min, 50 μg/mL): 4.56 | transport of euscaphic acid over time (Fig. 5M-O) (Caco-2 cells; human, Caco-2, 150 min, 50 µg/mL, pH 9): 0.45 | Papp (Caco-2 cells; human, Caco-2, 180 min): greater than 10^−6 | RB→A/A→B ratios, range over all conditions (Caco-2 cells; human, Caco-2, 180 min): 0.72-1.58 | RB→A/A→B (Caco-2 cells; human, Caco-2, 180 min, 100 μg/mL, pH 5): 1.16 ± 0.03 | RB→A/A→B (Caco-2 cells; human, Caco-2, 180 min, 100 μg/mL, pH 8): 0.95 ± 0.02 | RB→A/A→B (Caco-2 cells; human, Caco-2, 180 min, 100 μg/mL, pH 9): 1.16 ± 0.04 | RB→A/A→B (Caco-2 cells; human, Caco-2, 180 min, 150 μg/mL, pH 9): 1.14 ± 0.01 | efflux ratio at 180 min, 50 μg/mL (P-gp): 0.72 ± 0.01 | efflux ratio at 180 min, 100 μg/mL (P-gp): 0.78 ± 0.06 | efflux ratio at 180 min, 150 μg/mL (P-gp): 1.58 ± 0.01 | Papp at 180 min (in vitro; Caco-2): 0.754 to 26.9 ×10⁻⁶ cm/s | efflux ratio at 180 min, 50 μg/mL (in vitro; Caco-2, RB→A/A→B): 0.88 ± 0.01 | efflux ratio at 180 min, 100 μg/mL (in vitro; Caco-2, RB→A/A→B): 0.86 ± 0.01 | efflux ratio at 180 min, 150 μg/mL (in vitro; Caco-2, RB→A/A→B): 1.38 ± 0.21 | efflux ratio at 180 min (in vitro; Caco-2, efflux ratio (RB→A/A→B)): < 1.5 | efflux ratio at 180 min, 50 μg/mL (in vitro; Caco-2, pH 5, RB→A/A→B): 1.16 ± 0.08 | efflux ratio at 180 min, 150 μg/mL (in vitro; Caco-2, pH 5, RB→A/A→B): 0.97 ± 0.06 | efflux ratio at 180 min, 50 μg/mL (in vitro; Caco-2, pH 6, RB→A/A→B): 0.95 ± 0.05 | efflux ratio at 180 min, 100 μg/mL (in vitro; Caco-2, pH 6, RB→A/A→B): 1.19 ± 0.02 | efflux ratio at 180 min, 150 μg/mL (in vitro; Caco-2, pH 6, RB→A/A→B): 1.03 ± 0.09 | efflux ratio at 180 min (in vitro; Caco-2, pH 6, RB→A/A→B value): ~1 | efflux ratio at 180 min, 50 μg/mL (in vitro; Caco-2, pH 8, RB→A/A→B): 1.12 ± 0.03 | efflux ratio at 180 min, 150 μg/mL (in vitro; Caco-2, pH 8, RB→A/A→B): 0.91 ± 0.05 | efflux ratio at 180 min, 50 μg/mL (in vitro; Caco-2, pH 9, RB→A/A→B): 1.08 ± 0.03

Source: paper PMC11742250, “Study on the absorption characteristics of euscaphic acid and tiliroside in fruits of Rosa laxa Retz” (PeerJ, 2025)
